In assay [1] the test system is A431, human epidermoid carcinoma cells. The assay can be described thus: Cell cycle analysis (FACS), mitotic arrest in G2/M. Type of assay: cell-based. Particulars: read-out: FACS Assay: concentration required to achieve inhibition in FACS assay. In a few lines: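 A431 cells, 500,000/well at treatment, exposed to compounds at 0.01–1 μM final (0.1% DMSO) for 24 h. Ethanol-fixed cells RNase-treated (1 μg/ml, 37° C., 15 min), stained with propidium iodide (50 μg/ml, 30 min, RT). DNA ploidy by flow cytometry; mitotic arrest scored as G2/M accumulation.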
In general terms: A flow cytometer gives signals particle by particle.

The next assay concerns bovine tubulin. The assay can be described thus: In vitro tubulin polymerization assay (turbidity at 340 nm). The assay is classed as biochemical. The settings on record: 10 μM compound, 30 minute data point, vs 1% DMSO control. In a few lines:
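Bovine tubulin (97%, <3% MAPs) at 3 mg/ml final in G-PEM pH 7 with 1 mM GTP and 5% glycerol, added cold to compound wells at 37° C (1% DMSO final). A340 read each minute for 30 min; percent inhibition from 30-min point versus DMSO control.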

Each structure is given as a SMILES string. Read-outs that look alike come from different tables or passages of the source.

For `COc1cccc(CNc2nnc(-c3cccnc3Nc3cc(OC)cc(OC)c3)[nH]2)c1` [Compound 58, (3,5-Dimethoxy-phenyl)-{3-[5-(3-methoxy-benzylamino)-4H-[1,2,4]triazol-3-yl]-pyridin-2-yl}-amine], the minimal effective concentration in assay [1] (Homo sapiens, A-431, 24 h) amounted to 0.1 µM. Further, in the assay with bovine tubulin, the “Tubulin Assay: percent inhibition at 10 μM based on 30 minute data” value (“Tubulin Assay: percent inhibition” below) is on record as 100%.
For `c1cncc(CNc2ccccc2-c2nnc(Nc3ccc4c(c3)OCCO4)o2)c1` [Compound 216, (2,3-Dihydro-benzo[1,4]dioxin-6-yl)-(5-{2-[(pyridin-3-ylmethyl)-amino]-phenyl}-[1,3,4]oxadiazol-2-yl)-amine] the same measures were 0.1 µM and 94%.
The corresponding values for `Fc1ccc(CNc2ncccc2-c2nnc(Nc3ccc4c(c3)OCO4)[nH]2)cc1F` [Compound 43, {3-[5-(Benzo[1,3]dioxol-5-ylamino)-4H-[1,2,4]triazol-3-yl]-pyridin-2-yl}-(3,4-difluoro-benzyl)-amine] are 1 µM and 84%.
Regarding `COc1ccc(CNc2ncccc2-c2nnc(Nc3ccc4c(c3)OCCO4)o2)cc1` [Compound 160, {3-[5-(2,3-Dihydro-benzo[1,4]dioxin-6-ylamino)-[1,3,4]oxadiazol-2-yl]-pyridin-2-yl}-(4-methoxy-benzyl)-amine], the minimal effective concentration in assay [1] (Homo sapiens, A-431, 24 h) was 0.1 µM. In addition, the “Tubulin Assay: percent inhibition” value in the assay with bovine tubulin is listed as 89%.
In the case of `c1cnc(N2CCOCC2)c(-c2nnc(Nc3ccc4c(c3)OCCO4)o2)c1` [Compound 170, (2,3-Dihydro-benzo[1,4]dioxin-6-yl)-[5-(2-morpholin-4-yl-pyridin-3-yl)-[1,3,4]oxadiazol-2-yl]-amine], in assay [1] (Homo sapiens, A-431, 24 h), the minimal effective concentration turned out to be 0.1 µM. For the same compound, the “Tubulin Assay: percent inhibition” value with bovine tubulin is recorded as 55%.
On to `COc1cccc(Nc2nnc(-c3cccnc3OCc3ccc4c(c3)OCO4)[nH]2)c1` [Compound 73, {5-[2-(Benzo[1,3]dioxol-5-ylmethoxy)-pyridin-3-yl]-4H-[1,2,4]triazol-3-yl}-(3-methoxy-phenyl)-amine], for which the minimal effective concentration in assay [1] (Homo sapiens, A-431, 24 h) amounted to 1 µM. The “Tubulin Assay: percent inhibition” value with bovine tubulin is 70%.
For `CS(=O)(=O)c1ccc(-c2nnc(-c3cccnc3NCc3ccc(F)c(F)c3)[nH]2)cc1` [Compound 102, (3,4-Difluoro-benzyl)-{3-[5-(4-methanesulfonyl-phenyl)-4H-[1,2,4]triazol-3-yl]-pyridin-2-yl}-amine] the same measures were 0.1 µM and 88%.
For `Brc1cnn(-c2ncccc2-c2nnc(Nc3ccc4c(c3)OCO4)o2)c1` [Compound 210, Benzo[1,3]dioxol-5-yl-{5-[2-(4-bromo-pyrazol-1-yl)-pyridin-3-yl]-[1,3,4]oxadiazol-2-yl}-amine] the same measures were 1 µM and 87%.
Turning to `c1cnc(NCC2COCCO2)c(-c2nnc(Nc3ccc4c(c3)OCCO4)o2)c1` (stereo not shown) [Compound 203, {3-[5-(2,3-Dihydro-benzo[1,4]dioxin-6-ylamino)-[1,3,4]oxadiazol-2-yl]-pyridin-2-yl}-[1,4]dioxan-2-ylmethyl-amine], the minimal effective concentration in assay [1] (Homo sapiens, A-431, 24 h) stood at 0.1 µM. Besides, the “Tubulin Assay: percent inhibition” value in the assay with bovine tubulin is 69%.
Turning to `c1cnc(NCc2ccc3c(c2)OCCO3)c(-c2nnc(Nc3ccc4c(c3)OCO4)o2)c1` [Compound 196, {3-[5-(Benzo[1,3]dioxol-5-ylamino)-[1,3,4]oxadiazol-2-yl]-pyridin-2-yl}-(2,3-dihydro-benzo[1,4]dioxin-6-ylmethyl)-amine], the minimal effective concentration in assay [1] (Homo sapiens, A-431, 24 h) was 1 µM. Further, in the assay on bovine tubulin, the “Tubulin Assay: percent inhibition” value was 93%.
The corresponding values for `CS(=O)(=O)c1ccc(-c2nnc(-c3cccnc3Nc3cccc(S(N)(=O)=O)c3)[nH]2)cc1` [Compound 92, 3-{3-[5-(4-Methanesulfonyl-phenyl)-4H-[1,2,4]triazol-3-yl]-pyridin-2-ylamino}-benzenesulfonamide] are 10 µM and 74%.
For `c1coc(CNc2ncccc2-c2nnc(Nc3ccc4c(c3)OCO4)[nH]2)c1` [Compound 40, {3-[5-(Benzo[1,3]dioxol-5-ylamino)-4H-[1,2,4]triazol-3-yl]-pyridin-2-yl}-furan-2-ylmethyl-amine] the same measures were 1 µM and 71%.
The corresponding values for `COc1cccc(S(=O)(=O)Nc2ccccc2-c2nnc(Nc3ccc4c(c3)OCO4)o2)c1` [Compound 237, N-{2-[5-(Benzo[1,3]dioxol-5-ylamino)-[1,3,4]oxadiazol-2-yl]-phenyl}-3-methoxy-benzenesulfonamide] are 1 µM and 99%.
Consider `COc1ccc(CNc2ncccc2-c2nnc(Nc3ccc4c(c3)OCO4)o2)cc1` [Compound 157, {3-[5-(Benzo[1,3]dioxol-5-ylamino)-[1,3,4]oxadiazol-2-yl]-pyridin-2-yl}-(4-methoxy-benzyl)-amine], for which the minimal effective concentration in assay [1] (Homo sapiens, A-431, 24 h) came out at 1 µM. Further, the “Tubulin Assay: percent inhibition” value with bovine tubulin came out at 92%.
For `COc1cc(Nc2nnc(-c3cccnc3NCc3ccco3)o2)cc(OC)c1OC` [Compound 197, Furan-2-ylmethyl-{3-[5-(3,4,5-H trimethoxy-phenylamino)-[1,3,4]oxadiazol-2-yl]-pyridin-2-yl}-amine] the same measures were 1 µM and 66%.
Consider `COc1cccc(Nc2nnc(-c3cccnc3NCc3ccco3)[nH]2)c1` [Compound 42, Furan-2-ylmethyl-{3-[5-(3-methoxy-phenylamino)-4H-[1,2,4]triazol-3-yl]-pyridin-2-yl}-amine], for which the minimal effective concentration in assay [1] (Homo sapiens, A-431, 24 h) is 10 µM. Moreover, the “Tubulin Assay: percent inhibition” value in the assay with bovine tubulin was determined as 69%.
Regarding `COc1cc(CNc2ccccc2-c2nnc(Nc3ccc4c(c3)OCCO4)o2)cc(OC)c1` [Compound 219, (2,3-Dihydro-benzo[1,4]dioxin-6-yl)-{5-[2-(3,5-dimethoxy-benzylamino)-phenyl]-[1,3,4]oxadiazol-2-yl}-amine], the minimal effective concentration in assay [1] (Homo sapiens, A-431, 24 h) came out at 0.1 µM. In addition, the “Tubulin Assay: percent inhibition” value in the assay with bovine tubulin came to 63%.
The corresponding values for `COc1cccc(Nc2ncc(-c3ccccc3NCc3ccc4c(c3)OCO4)o2)c1` [Compound 249, (5-{2-[(Benzo[1,3]dioxol-5-ylmethyl)-amino]-phenyl}-oxazol-2-yl)-(3-methoxy-phenyl)-amine] are 1 µM and 60%.
The corresponding values for `COc1ccc(CNc2ncccc2-c2nnc(Nc3ccc4c(c3)OCCO4)[nH]2)cc1` [Compound 51, {3-[5-(2,3-Dihydro-benzo[1,4]dioxin-6-ylamino)-4H-[1,2,4]triazol-3-yl]-pyridin-2-yl}-(4-methoxy-benzyl)-amine] are 1 µM and 68%.
For the compound `CS(=O)(=O)c1ccc(-c2nnc(-c3ccccc3NCc3ccc4c(c3)OCO4)[nH]2)cc1` [Compound 133, Benzo[1,3]dioxol-5-ylmethyl-{2-[5-(4-methanesulfonyl-phenyl)-4H-[1,2,4]triazol-3-yl]-phenyl}-amine], in assay [1] (Homo sapiens, A-431, 24 h), the minimal effective concentration came out at 1 µM. In the assay with bovine tubulin, the “Tubulin Assay: percent inhibition” value stood at 86%.
On to `COc1cccc(-c2nnc(-c3ccccc3NCc3ccc4c(c3)OCO4)[nH]2)c1` [Compound 148, Benzo[1,3]dioxol-5-ylmethyl-{2-[5-(3-methoxy-phenyl)-4H-[1,2,4]triazol-3-yl]-phenyl}-amine], for which, in assay [1] (Homo sapiens, A-431, 24 h), the minimal effective concentration came to 10 µM. The “Tubulin Assay: percent inhibition” value with bovine tubulin turned out to be 71%.
The corresponding values for `c1cnc(NCC2COCCO2)c(-c2nnc(Nc3ccc4c(c3)OCO4)o2)c1` (stereo not shown) [Compound 202, {3-[5-(Benzo[1,3]dioxol-5-ylamino)-[1,3,4]oxadiazol-2-yl]-pyridin-2-yl}-[1,4]dioxan-2-ylmethyl-amine] are 0.1 µM and 89%.
The corresponding values for `c1cnc(NCC2CCCO2)c(-c2nnc(Nc3ccc4c(c3)OCCO4)o2)c1` (stereo not shown) [Compound 175, {3-[5-(2,3-Dihydro-benzo[1,4]dioxin-6-ylamino)-[1,3,4]oxadiazol-2-yl]-pyridin-2-yl}-(tetrahydro-furan-2-ylmethyl)-amine] are 0.1 µM and 90%.
Turning to `COc1cccc(Nc2nnc(-c3cccnc3NCc3ccncc3)[nH]2)c1` [Compound 39, {3-[5-(3-Methoxy-phenylamino)-4H-[1,2,4]triazol-3-yl]-pyridin-2-yl}-pyridin-4-ylmethyl-amine], the minimal effective concentration in assay [1] (Homo sapiens, A-431, 24 h) worked out at 0.1 µM. Further, in the assay on bovine tubulin, the “Tubulin Assay: percent inhibition” value is 83%.
For `c1coc(CNc2ncccc2-c2nnc(Nc3ccc4c(c3)OCCO4)o2)c1` [Compound 205, {3-[5-(2,3-Dihydro-benzo[1,4]dioxin-6-ylamino)-[1,3,4]oxadiazol-2-yl]-pyridin-2-yl}-furan-2-ylmethyl-amine], the minimal effective concentration in assay [1] (24 hours) was found to be 1 µM. The “Tubulin Assay: percent inhibition” value with bovine tubulin stood at 56%.
Regarding `c1ccc(-c2nnc(Nc3ccc4c(c3)OCCO4)[nH]2)c(NCc2ccc3[nH]ncc3c2)c1` [Compound 117, (2,3-Dihydro-benzo[1,4]dioxin-6-yl)-(5-{2-[(1H-indazol-5-ylmethyl)-amino]-phenyl}-4H-[1,2,4]triazol-3-yl)-amine], the minimal effective concentration in assay [1] (Homo sapiens, A-431, 24 h) came out at 1 µM. In addition, the “Tubulin Assay: percent inhibition” value in the assay on bovine tubulin amounted to 84%.

The values above are taken from patent US20090048301A1 (IMCLONE SYSTEMS INCORPORATED, priority 2003, published 2009).
